Measurements reported in patent US9096589B2, “Heteroaromatic phenylimidazole derivatives as PDE10A enzyme inhibitors” (H. Lundbeck A/S, priority 2009, dated 2015).

The compounds below were run against PDE10A (Homo sapiens (Human), UniProt Q9Y233) (assay: PDE10A inhibition assay).
Type: biochemical
Experimental: Active PDE10A enzyme is prepared in a number of ways for use in PDE assays (Loughney, K. et al. Gene 1999, 234, 109-117; Fujishige, K. et al. Eur J. Biochem. 1999, 266, 1118-1127 and Soderling, S. et al. Proc. Natl. Acad. Sci. 1999, 96, 7071-7076). PDE10A can be expressed as full-length proteins or as truncated proteins, as long as they express the catalytic domain. PDE10A can be prepared in different cell types, for example insect cells or E. coli. An example of a method to obtain catalytically active PDE10A is as follows: The catalytic domain of human PDE10A (amino acids 440-779 from the sequence with accession number NP 006652) is amplified from total human brain total RNA by standard RT-PCR and is cloned into the BamH1 and Xho1 sites of the pET28a vector (Novagen). Expression in coli is performed according to standard protocols. Briefly, the expression plasmids are transformed into the BL21(DE3) E. coli strain, and 50 mL cultures inoculated with the cells allowed to grow to an OD600 of 0.4-0.6 before protein expression is induced with 0.5 mM IPTG. Following induction, the cells are incubated overnight at room temperature, after which the cells are collected by centrifugation. Cells expressing PDE10A are resuspended in 12 mL (50 mM TRIS-HCl-pH8.0, 1 mM MgCl2 and protease inhibitors). The cells are lysed by sonication, and after all cells are lysed, TritonX100 is added according to Novagen protocols.
A PDE10A assay may for example, be performed as follows: The assay is performed in 60 uL samples containing a fixed amount of the relevant PDE enzyme (sufficient to convert 20-25% of the cyclic nucleotide substrate); a buffer (50 mM HEPES7.6; 10 mM MgCl2; 0.02% Tween20), 0.1 mg/ml BSA, 225 pCi of ^3H-labelled cyclic nucleotide substrate, tritium labeled cAMP to a final concentration of 5 nM and varying amounts of inhibitors. Reactions are initiated by addition of the cyclic nucleotide substrate, and reactions are allowed to proceed for one hr at room temperature before being terminated through mixing with 15 uL 8 mg/mL yttrium silicate SPA beads (Amersham). The beads are allowed to settle for one hr in the dark before the plates are counted in a Wallac 1450 Microbeta counter. The measured signal can be converted to activity relative to an uninhibited control (100%) and IC50 values can be calculated using the Xlfit extension to EXCEL.

Sequence of PDE10A (Q9Y233 716-1055): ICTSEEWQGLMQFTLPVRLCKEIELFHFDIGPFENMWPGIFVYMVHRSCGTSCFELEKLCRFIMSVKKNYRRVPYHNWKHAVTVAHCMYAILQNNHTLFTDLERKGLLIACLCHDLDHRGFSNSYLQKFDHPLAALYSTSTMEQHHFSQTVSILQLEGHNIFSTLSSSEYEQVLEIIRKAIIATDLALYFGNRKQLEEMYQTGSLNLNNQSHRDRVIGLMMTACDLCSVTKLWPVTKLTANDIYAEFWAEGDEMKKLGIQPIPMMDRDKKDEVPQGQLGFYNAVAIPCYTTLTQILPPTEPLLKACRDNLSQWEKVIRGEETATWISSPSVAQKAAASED

| IC50 [µM] | SMILES |
| --- | --- |
| 0.0092 | Cc1cccc2nc(CCc3nc(-c4cccs4)cn3C)nn12 [5-Methyl-2-[2-(1-methyl-4-thiophen-2-yl-1H-imidazol-2-yl)-ethyl]-[1,2,4]triazolo[1,5-a]pyridine] |
| 0.049 | CCCn1cc(-c2cccnc2)nc1CCc1nc2cccc(C)n2n1 [5-Methyl-2-[2-(1-propyl-4-pyridin-3-yl-1H-imidazol-2-yl)-ethyl]-[1,2,4]triazolo[1,5-a]pyridine] |
| 0.0096 | Cc1cccc2nc(CCc3nc(-c4cccnc4)c[nH]3)nn12 [5-Methyl-2-[2-(4-pyridin-3-yl-1H-imidazol-2-yl)-ethyl]-[1,2,4]triazolo[1,5-a]pyridine] |
| 0.00054 | Cc1cccc2nc(CCc3nc(-c4cccs4)c[nH]3)nn12 [5-Methyl-2-[2-(4-thiophen-2-yl-1H-imidazol-2-yl)-ethyl]-[1,2,4]triazolo[1,5-a]pyridine] |
| 0.0057 | Cc1cccc2nc(CCc3nc(-c4ccsc4)c[nH]3)nn12 [5-Methyl-2-[2-(4-thiophen-3-yl-1H-imidazol-2-yl)-ethyl]-[1,2,4]triazolo[1,5-a]pyridine] |
| 0.045 | Cc1cscc1-c1c[nH]c(CCc2nc3cccc(C)n3n2)n1 [5-Methyl-2-{2-[4-(4-methyl-thiophen-3-yl)-1H-imidazol-2-yl]-ethyl}-[1,2,4]triazolo[1,5-a]pyridine] |
| 0.034 | Cc1ccc(-c2c[nH]c(CCc3nc4cccc(C)n4n3)n2)o1 [5-Methyl-2-{2-[4-(5-methyl-furan-2-yl)-1H-imidazol-2-yl]-ethyl}-[1,2,4]triazolo[1,5-a]pyridine] |
| 0.047 | Cn1cc(-c2cccs2)nc1CCc1nc2c(F)cccn2n1 [8-Fluoro-2-[2-(1-methyl-4-thiophen-2-yl-1H-imidazol-2-yl)-ethyl]-[1,2,4]triazolo[1,5-a]pyridine] |
| 0.3 | Cn1cc(-c2cncs2)nc1/C=C/c1nc2c(F)cccn2n1 [8-Fluoro-2-[(E)-2-(1-methyl-4-thiazol-5-yl-1H-imidazol-2-yl)-vinyl]-[1,2,4]triazolo[1,5-a]pyridine] |
| 0.1 | Cn1cc(-c2cccs2)nc1/C=C/c1nc2c(F)cccn2n1 [8-Fluoro-2-[(E)-2-(1-methyl-4-thiophen-2-yl-1H-imidazol-2-yl)-vinyl]-[1,2,4]triazolo[1,5-a]pyridine] |
| 0.094 | Cc1ccc(-c2cn(C)c(CCc3nc4c(F)cccn4n3)n2)o1 [8-Fluoro-2-{2-[1-methyl-4-(5-methyl-furan-2-yl)-1H-imidazol-2-yl]-ethyl}-[1,2,4]triazolo[1,5-a]pyridine] |
| 0.52 | Cc1ccc(-c2cn(C)c(/C=C/c3nc4c(F)cccn4n3)n2)o1 [8-Fluoro-2-{(E)-2-[1-methyl-4-(5-methyl-furan-2-yl)-1H-imidazol-2-yl]-vinyl}-[1,2,4]triazolo[1,5-a]pyridine] |
| 0.036 | COc1cccn2nc(CCc3nc(-c4cncs4)cn3C)nc12 [8-Methoxy-2-[2-(1-methyl-4-thiazol-5-yl-1H-imidazol-2-yl)-ethyl]-[1,2,4]triazolo[1,5-a]pyridine] |
| 0.0045 | COc1cccn2nc(CCc3nc(-c4cccs4)cn3C)nc12 [8-Methoxy-2-[2-(1-methyl-4-thiophen-2-yl-1H-imidazol-2-yl)-ethyl]-[1,2,4]triazolo[1,5-a]pyridine] |
| 0.016 | COc1cccn2nc(CCc3nc(-c4ccsc4)cn3C)nc12 [8-Methoxy-2-[2-(1-methyl-4-thiophen-3-yl-1H-imidazol-2-yl)-ethyl]-[1,2,4]triazolo[1,5-a]pyridine] |
| 0.27 | COc1cccn2nc(CCc3nc(-c4cccnc4)c[nH]3)nc12 [8-Methoxy-2-[2-(4-pyridin-3-yl-1H-imidazol-2-yl)-ethyl]-[1,2,4]triazolo[1,5-a]pyridine] |
| 0.062 | COc1cccn2nc(CCc3nc(-c4cncs4)c[nH]3)nc12 [8-Methoxy-2-[2-(4-thiazol-5-yl-1H-imidazol-2-yl)-ethyl]-[1,2,4]triazolo[1,5-a]pyridine] |

| IC50 [µM] | SMILES |
| --- | --- |
| 0.028 | COc1cccn2nc(CCc3nc(-c4cccs4)c[nH]3)nc12 [8-Methoxy-2-[2-(4-thiophen-2-yl-1H-imidazol-2-yl)-ethyl]-[1,2,4]triazolo[1,5-a]pyridine] |
| 0.085 | COc1cccn2nc(/C=C/c3nc(-c4cncs4)cn3C)nc12 [8-Methoxy-2-[(E)-2-(1-methyl-4-thiazol-5-yl-1H-imidazol-2-yl)-vinyl]-[1,2,4]triazolo[1,5-a]pyridine] |
| 0.062 | COc1cccn2nc(/C=C/c3nc(-c4cccs4)cn3C)nc12 [8-Methoxy-2-[(E)-2-(1-methyl-4-thiophen-2-yl-1H-imidazol-2-yl)-vinyl]-[1,2,4]triazolo[1,5-a]pyridine] |
| 0.052 | COc1cccn2nc(/C=C/c3nc(-c4ccsc4)cn3C)nc12 [8-Methoxy-2-[(E)-2-(1-methyl-4-thiophen-3-yl-1H-imidazol-2-yl)-vinyl]-[1,2,4]triazolo[1,5-a]pyridine] |
| 0.037 | COc1cccn2nc(CCc3nc(-c4cscc4C)cn3C)nc12 [8-Methoxy-2-{2-[1-methyl-4-(4-methyl-thiophen-3-yl)-1H-imidazol-2-yl]-ethyl}-[1,2,4]triazolo[1,5-a]pyridine] |
| 0.056 | COc1cccn2nc(CCc3nc(-c4ccc(C)o4)cn3C)nc12 [8-Methoxy-2-{2-[1-methyl-4-(5-methyl-furan-2-yl)-1H-imidazol-2-yl]-ethyl}-[1,2,4]triazolo[1,5-a]pyridine] |
| 0.12 | COc1cccn2nc(CCc3nc(-c4ccc(C)o4)c[nH]3)nc12 [8-Methoxy-2-{2-[4-(5-methyl-furan-2-yl)-1H-imidazol-2-yl]-ethyl}-[1,2,4]triazolo[1,5-a]pyridine] |
| 0.055 | COc1cccn2nc(/C=C/c3nc(-c4cscc4C)cn3C)nc12 [8-Methoxy-2-{(E)-2-[1-methyl-4-(4-methyl-thiophen-3-yl)-1H-imidazol-2-yl]-vinyl}-[1,2,4]triazolo[1,5-a]pyridine] |
| 0.024 | COc1ccc(C)n2nc(CCc3nc(-c4cccnc4)cn3C)nc12 [8-Methoxy-5-methyl-2-[2-(1-methyl-4-pyridin-3-yl-1H-imidazol-2-yl)-ethyl]-[1,2,4]triazolo[1,5-a]pyridine] |
| 0.0092 | COc1ccc(C)n2nc(CCc3nc(-c4cncs4)cn3C)nc12 [8-Methoxy-5-methyl-2-[2-(1-methyl-4-thiazol-5-yl-1H-imidazol-2-yl)-ethyl]-[1,2,4]triazolo[1,5-a]pyridine] |
| 0.0015 | COc1ccc(C)n2nc(CCc3nc(-c4cccs4)cn3C)nc12 [8-Methoxy-5-methyl-2-[2-(1-methyl-4-thiophen-2-yl-1H-imidazol-2-yl)-ethyl]-[1,2,4]triazolo[1,5-a]pyridine] |
| 0.0017 | COc1ccc(C)n2nc(CCc3nc(-c4ccsc4)cn3C)nc12 [8-Methoxy-5-methyl-2-[2-(1-methyl-4-thiophen-3-yl-1H-imidazol-2-yl)-ethyl]-[1,2,4]triazolo[1,5-a]pyridine] |
| 0.0041 | C#CCn1cc(-c2cccs2)nc1CCc1nc2c(OC)ccc(C)n2n1 [8-Methoxy-5-methyl-2-[2-(1-prop-2-ynyl-4-thiophen-2-yl-1H-imidazol-2-yl)-ethyl]-[1,2,4]triazolo[1,5-a]pyridine] |
| 0.0012 | CCCn1cc(-c2cccs2)nc1CCc1nc2c(OC)ccc(C)n2n1 [8-Methoxy-5-methyl-2-[2-(1-propyl-4-thiophen-2-yl-1H-imidazol-2-yl)-ethyl]-[1,2,4]triazolo[1,5-a]pyridine] |
| 0.0011 | COc1ccc(C)n2nc(CCc3nc(-c4cccs4)c[nH]3)nc12 [8-Methoxy-5-methyl-2-[2-(4-thiophen-2-yl-1H-imidazol-2-yl)-ethyl]-[1,2,4]triazolo[1,5-a]pyridine] |
| 0.0027 | COc1ccc(C)n2nc(/C=C/c3nc(-c4cccs4)cn3C)nc12 [8-Methoxy-5-methyl-2-[(E)-2-(1-methyl-4-thiophen-2-yl-1H-imidazol-2-yl)-vinyl]-[1,2,4]triazolo[1,5-a]pyridine] |
| 0.00033 | COc1ccc(C)n2nc(CCc3nc(-c4cccs4)cn3CCN3CCOCC3)nc12 [8-Methoxy-5-methyl-2-{2-[1-(2-morpholin-4-yl-ethyl)-4-thiophen-2-yl-1H-imidazol-2-yl]-ethyl}-[1,2,4]triazolo[1,5-a]pyridine] |

| SMILES | IC50 [µM] |
| --- | --- |
| Cc1ccc(-c2cn(COCC[Si](C)(C)C)c(/C=C/c3nc4cccc(C)n4n3)n2)s1 [5-Methyl-2-{(E)-2-[4-(5-methyl-thiophen-2-yl)-1-(2-trimethylsilanyl-ethoxymethyl)-1H-imidazol-2-yl]-vinyl}-[1,2,4]triazolo[1,5-a]pyridine] | 0.21 |
